{"source": "patent US20240130675A1", "about": "“Methods for Treating Autism Spectrum Disorder” (The General Hospital Corporation, priority 2021, published 2024)", "key": {"youth with ASD": {"system": "youth with ASD", "assay": "12-week RCT: safety and tolerability (treatment-emergent AEs, vital signs, early terminations, rescue medication)", "type": "in vivo, human", "protocol": "This study was a 12-week, randomized, double-blind, placebo-controlled, parallel group clinical trial of memantine in youth with ASD. Youth with ASD who met the eligibility criteria were randomized to receive either memantine or placebo during the course of the 12-week trial. Participants underwent multimodal MRI scans prior to and upon completion of the 12-week trial. Participants were assessed weekly during the titration phase (baseline to Week 4) and at midpoint (Week 6), Week 9, and completion (Week 12) during the maintenance phase. At each study visit, safety and efficacy were assessed by administering measures of efficacy (CGI, GAF), tolerability (assessing treatment-emergent AEs), and safety (vital signs, including weight). At baseline, midpoint, and endpoint (completion/early termination) severity of autism was assessed by administering measures of autism severity (SRS-2, ABC-SW, CY-BOCS-PDD) and associated psychopathology (ADHD-RS, CDRS-R, CASI-ANX).\nSafety and tolerability of memantine was monitored by administering a complete physical examination, battery of blood tests (complete blood count, electrolytes, liver function test, thyroid function test, and random glucose levels), Urine tests (drug screen and pregnancy screen [women of child-bearing potential only]), and EKG at baseline and endpoint of the trial, and by recording treatment-emergent AEs and obtaining vital signs (pulse, blood pressure, weight) at each study visit.\nSafety results were summarized descriptively by treatment group and baseline glutamate activity level (high versus normal) and compared at the end of the study using Fisher's exact or Pearson's chi-square tests. All analyses were performed using Stata (Version 16) (StataCorp, Stata Statistical Software: Release 16. College Station, TX: StataCorp LLC. 2019)."}, "PgACC glutamate activity": {"system": "PgACC glutamate activity", "assay": "PgACC glutamate activity by 2D-JPRESS 1H MRS at 4T, pre- and post-treatment", "type": "in vivo, human", "protocol": "Glutamate response to memantine therapy in the PgACC was assessed by acquiring spectroscopic MRI pre- and post-treatment.\nHealthy Control Participants were enrolled for spectroscopic neuro-imaging data acquisition to form a control group. Healthy controls (HC) were age, sex, and IQ-matched with enrolled ASD participants. HC participants were with no significant autistic traits, as screened by SRS-2 raw score of<60, and with no major psychopathology, as established by the K-SADS-E and confirmed by clinical diagnostic interview.\nData Acquisition—Proton spectra were acquired at 4T using a two-dimensional J-resolved (2D-JPRESS) ^1HMRS protocol. A 2D-JPRESS sequence was chosen to improve reliability for spectral fitting of the metabolites(Gonenc et al., 2010; Moore et al., 2007), allow analysis of glutamate alone versus ratios or combined measures (e.g., Glx), and confirm that measured metabolic differences truly arise from differences in metabolic levels and not from T2 relaxation time differences. […] Data were collected in 12 TE-stepped spectra with the echo-time ranging from 30 to 250 ms in 20 ms increments, with TR=2s, averages=16, scan duration=7 minutes.\nData Processing: Spectral analysis was conducted in a fully automated fashion using the commercially available LCModel package (version 6.2-1F). After the 2D-JPRESS dataset was resolved into a series of one-dimensional spectra where each spectrum was modeled and fitted with GAMMA simulated96 J-resolved basis sets, glutamate activity levels were derived from the total integral across the J-series. Glutamate transverse relaxation time (T2) was obtained from the raw peak vs. TE decay curve fitted with Levenberg-Marquardt algorithm using an exponential decay function (for glutamate T2) convoluted with a polynomial function (for glutamate J-coupling) which was obtained from the GAMMA simulation run with previously measured spectral parameters (Govindaraju, Young, & Maudsley, 2000). Data quality was assessed by LCModel calculated Full Width Half Maximum (FWHM), Signal to Noise Ratio (SNR) and Cramer-Rao Lower Bounds (CRLB).\nThe primary outcome was analyzed using Pearson's chi-square test at the a priori defined significance level of 0.05. Secondary measures of efficacy were analyzed using mixed-effects regression models with robust standard errors to account for the repeated measures on each subject. The primary and secondary measures were compared between memantine versus placebo as well as between those with high versus normal baseline glutamate activity levels. Participants were categorized as having high versus normal glutamate activity levels at baseline using z-scores. The population mean and SD for z-score calculations were derived from healthy control glutamate activity levels (baseline and endpoint). Glutamate activity levels with z-scores≥1 were categorized as high glutamate activity levels, those with z-scores<1 and >−1 were categorized as normal glutamate activity levels and those with z-scores≤−1 were categorized as low glutamate activity levels. Changes in PgACC glutamate activity levels within groups were tested using paired t-tests and changes between groups were tested using two-sample t-tests. We also performed ROC curve analyses to determine the predictive utility of baseline PgACC glutamate activity levels in identifying treatment responders within the memantine and placebo groups. All analyses apart from the analysis of the primary outcome were considered exploratory. Analyses were performed using a modified intent-to-treat analysis set which included all randomized patients who were regarded exposed to study medication (completed at least two weeks of treatment) and had at least one follow-up assessment."}, "adults with HF-ASD": {"system": "adults with HF-ASD", "details": "cited from earlier work"}}}
{"smiles": "CC12CC3CC(C)(C1)CC(N)(C3)C2", "note": "[MEM, memantine]", "values": [{"measurement": "Mean # of AEs", "setting": "youth with ASD; Glu Based Sample [MEM] High [N = 10]", "result": "2.4 ± 1.3"}, {"measurement": "Mean # of AEs", "setting": "youth with ASD; Glu Based Sample [MEM] Normal [N = 8]", "result": "2.8 ± 1.0"}, {"measurement": "Early Terminations: Treatment Limiting AEs", "setting": "youth with ASD; Unselected Sample MEM [N = 21]", "result": "Four"}, {"measurement": "Mean # of AEs", "setting": "youth with ASD; Unselected Sample MEM [N = 21]", "result": "2.2 ± 1.2"}, {"measurement": "Participants completed trial (12 weeks)", "setting": "youth with ASD; Unselected Sample MEM [N = 21]", "result": 16, "unit": "N"}, {"measurement": "Severe AEs", "setting": "youth with ASD; Unselected Sample MEM [N = 21]", "result": "Two"}, {"measurement": "Severe AEs: Headache", "setting": "youth with ASD; Unselected Sample MEM [N = 21]", "result": 5, "unit": "%"}, {"measurement": "Severe AEs: Irritability + Agitation (Worsening)", "setting": "youth with ASD; Unselected Sample MEM [N = 21]", "result": 5, "unit": "%"}, {"measurement": "PgACC Glutamate Activity BL", "setting": "PgACC glutamate activity; High-Glu ASD Sample, MEM Group N = 10, baseline", "result": "109.1 ± 11.9"}, {"measurement": "PgACC Glutamate Activity EP", "setting": "PgACC glutamate activity; High-Glu ASD Sample, MEM Group N = 10, endpoint", "result": "78.7 ± 13.6"}, {"measurement": "PgACC Glutamate Activity MD", "setting": "PgACC glutamate activity; High-Glu ASD Sample, MEM Group N = 10, mean difference BL to EP", "result": "−30.3 ± 23.3"}, {"measurement": "PgACC Glutamate Activity ASD vs. HC MD @ EP", "setting": "PgACC glutamate activity; High-Glu ASD Sample, MEM Group N=10 vs HC N = 13", "result": "−2.5 ± 34.3"}, {"measurement": "PgACC Glutamate Activity ASD vs. HC MD @ BL", "setting": "PgACC glutamate activity; High-Glu ASD Sample, MEM Group N=10 vs HC N = 16", "result": "−32.5 ± 32.4"}, {"measurement": "PgACC Glutamate Activity BL", "setting": "PgACC glutamate activity; High-Glu ASD Sample, MEM Responders N = 8, baseline", "result": "111.1 ± 12.5"}, {"measurement": "PgACC Glutamate Activity EP", "setting": "PgACC glutamate activity; High-Glu ASD Sample, MEM Responders N = 8, endpoint", "result": "75.8 ± 13.6"}, {"measurement": "PgACC Glutamate Activity MD", "setting": "PgACC glutamate activity; High-Glu ASD Sample, MEM Responders N = 8, mean difference BL to EP", "result": "−35.4 ± 23.5"}, {"measurement": "PgACC Glutamate Activity ASD vs. HC MD @ EP", "setting": "PgACC glutamate activity; High-Glu ASD Sample, MEM Responders N=8 vs HC N = 13", "result": "0.5 ± 35.7"}, {"measurement": "PgACC Glutamate Activity ASD vs. HC MD @ BL", "setting": "PgACC glutamate activity; High-Glu ASD Sample, MEM Responders N=8 vs HC N = 16", "result": "−34.5 ± 34.4"}, {"measurement": "MD in Glu w/ Tx: MD MEM vs PBO", "setting": "PgACC glutamate activity; High-Glu ASD, MEM = 10 PBO = 8", "result": "−21.5 ± 37.3"}, {"measurement": "MD in Glu w/ Tx: MD H-Glu vs N-Glu", "setting": "PgACC glutamate activity; MEM Group, H-Glu N = 10 vs N-Glu N = 5", "result": "32.2 ± 43.1"}, {"measurement": "PgACC Glutamate Activity BL", "setting": "PgACC glutamate activity; Normal-Glu ASD Sample, MEM Group/Non-Responders N = 5, baseline", "result": "84.1 ± 8.6"}, {"measurement": "PgACC Glutamate Activity EP", "setting": "PgACC glutamate activity; Normal-Glu ASD Sample, MEM Group/Non-Responders N = 5, endpoint", "result": "86.0 ± 2.8"}, {"measurement": "PgACC Glutamate Activity MD", "setting": "PgACC glutamate activity; Normal-Glu ASD Sample, MEM Group/Non-Responders N = 5, mean difference BL to EP", "result": "1.9 ± 10.8"}, {"measurement": "PgACC Glutamate Activity ASD vs. HC MD @ EP", "setting": "PgACC glutamate activity; Normal-Glu ASD Sample, MEM Group/Non-Responders N=5 vs HC N = 13", "result": "−9.7 ± 37.2"}, {"measurement": "MD in Glu w/ Tx: MD MEM vs PBO", "setting": "PgACC glutamate activity; Normal-Glu ASD, MEM = 5", "result": "−6.3 ± 24.1"}, {"measurement": "PgACC Glutamate Activity ASD vs. HC MD @ BL", "setting": "PgACC glutamate activity; Unselected ASD Sample, MEM Group (MEM=19) vs HC N = 16", "result": "−19.8 ± 34.5^[MEM=19]"}, {"measurement": "PgACC Glutamate Activity BL", "setting": "PgACC glutamate activity; Unselected ASD Sample, MEM Group N = 15, baseline, mean ± SD", "result": "100.8 ± 16.1"}, {"measurement": "PgACC Glutamate Activity EP", "setting": "PgACC glutamate activity; Unselected ASD Sample, MEM Group N = 15, endpoint, mean ± SD", "result": "81.2 ± 11.6"}, {"measurement": "PgACC Glutamate Activity MD", "setting": "PgACC glutamate activity; Unselected ASD Sample, MEM Group N = 15, mean difference BL to EP", "result": "−19.6 ± 25.1"}, {"measurement": "PgACC Glutamate Activity ASD vs. HC MD @ EP", "setting": "PgACC glutamate activity; Unselected ASD Sample, MEM Group N=15 vs HC N = 13", "result": "−4.9 ± 31.2"}, {"measurement": "PgACC Glutamate Activity BL", "setting": "PgACC glutamate activity; Unselected ASD Sample, MEM Non-responders N = 7, baseline", "result": "88.9 ± 10.9"}, {"measurement": "PgACC Glutamate Activity EP", "setting": "PgACC glutamate activity; Unselected ASD Sample, MEM Non-responders N = 7, endpoint", "result": "87.3 ± 3.9"}, {"measurement": "PgACC Glutamate Activity MD", "setting": "PgACC glutamate activity; Unselected ASD Sample, MEM Non-responders N = 7, mean difference BL to EP", "result": "−1.6 ± 10.7"}, {"measurement": "PgACC Glutamate Activity ASD vs. HC MD @ EP", "setting": "PgACC glutamate activity; Unselected ASD Sample, MEM Non-responders N=7 vs HC N = 13", "result": "−11.1 ± 33.1"}, {"measurement": "PgACC Glutamate Activity ASD vs. HC MD @ BL", "setting": "PgACC glutamate activity; Unselected ASD Sample, MEM Non-responders N=7 vs HC N = 16", "result": "−12.3 ± 34.9"}, {"measurement": "PgACC Glutamate Activity BL", "setting": "PgACC glutamate activity; Unselected ASD Sample, MEM Responders N = 8, baseline", "result": "111.1 ± 12.5"}, {"measurement": "PgACC Glutamate Activity EP", "setting": "PgACC glutamate activity; Unselected ASD Sample, MEM Responders N = 8, endpoint", "result": "75.8 ± 13.6"}, {"measurement": "PgACC Glutamate Activity MD", "setting": "PgACC glutamate activity; Unselected ASD Sample, MEM Responders N = 8, mean difference BL to EP", "result": "−35.4 ± 23.5"}, {"measurement": "PgACC Glutamate Activity ASD vs. HC MD @ EP", "setting": "PgACC glutamate activity; Unselected ASD Sample, MEM Responders N=8 vs HC N = 13", "result": "0.48 ± 35.7"}, {"measurement": "PgACC Glutamate Activity ASD vs. HC MD @ BL", "setting": "PgACC glutamate activity; Unselected ASD Sample, MEM Responders N=8 vs HC N = 16", "result": "-34.5 ± 34.4"}, {"measurement": "MD in Glu w/ Tx: MD MEM vs PBO", "setting": "PgACC glutamate activity; Unselected ASD, MEM = 15, PBO = 16", "result": "−12.2 ± 38.3"}, {"measurement": "Magnitude of PgACC glutamate reduction, memantine versus placebo", "setting": "PgACC glutamate activity; high glutamate sample", "result": "significantly higher"}, {"measurement": "PgACC glutamate activity with treatment versus HCs", "setting": "PgACC glutamate activity; high glutamate sample, memantine group", "result": "not significantly different from HCs"}, {"measurement": "Change with treatment in PgACC glutamate activity, baseline to endpoint", "setting": "PgACC glutamate activity; high glutamate sample, memantine treated group", "result": "significant reduction"}, {"measurement": "Change with treatment in PgACC glutamate activity, baseline to endpoint", "setting": "PgACC glutamate activity; normal-glutamate sample", "result": "did not change significantly"}, {"measurement": "Change with treatment in PgACC glutamate activity, baseline to endpoint", "setting": "PgACC glutamate activity; unselected sample of ASD, memantine treated group", "result": "significant reduction"}, {"measurement": "Social behaviors", "setting": "adults with HF-ASD; 12-week treatment, 20 mg/day, adults with HF-ASD", "result": "significant improvement in social behaviors"}, {"measurement": "Responders", "setting": "adults with HF-ASD; pilot study, 15-20 mg daily", "result": "four out of seven"}]}
